Assay results from patent publication US20180296456A1, “Decapeptide-12 Modulation of Sirtuin Gene Expression in Epidermal Keratinocyte Progenitors” (Escape Therapeutics, Inc., priority 2017, published 2018).

Experiments:
[1] = MTT cell proliferation assay, fibroblasts; type: cell-based, human; details: human, MTT, 72 h, read-out: fibroblast proliferation rate after 72 hours
Description: Proliferation rates for three human cell lines (epidermal progenitors, melanoblasts, and fibroblasts) were determined using a TACS® MTT Cell Proliferation Kit. Cells were seeded at 2.5×10^4/well in 96-well plates in a humidified atmosphere with 5 percent CO2 at 37 degrees Celsius. Twenty-four hours later, the decapeptides were added to the corresponding wells at varying concentrations and incubated for 72 hours. The remainder of the procedure was performed following the manufacturer's protocol.

SIRT4 = SIRT4 transcription, semi-quantitative RT-PCR in human epidermal progenitors; type: cell-based; details: 72 h
in vitro = type: cell-based; details: human, human epidermal progenitors
In short: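 Epidermal progenitors were seeded at 2.5×10^4/well and kept at 37 °C in 5% CO2. Proliferation was measured by MTT.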

SIRT2 = SIRT2 transcription, semi-quantitative RT-PCR in human epidermal progenitors; type: cell-based; details: 72 h
In short: (§1)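 Epidermal progenitors (human, neonatal); Epilife + 60 μM CaCl2; 37 °C/5 percent CO2. Decapeptide 10, 30, 50, 100, 300 μM × 72 h, 0.05 percent DMSO final. Oligo-dT cDNA from 2 μg RNA; PCR 34 cycles, 54 °C extension; ethidium gel, ratio to 18S.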

[2] = Trypan blue cell viability, 7 days, fibroblasts; type: cell-based; details: human, relative to control, read-out: fibroblast viability after 7 days
Description: The effect of each of the decapeptides upon cell viability was also tested. In particular, cells were incubated with the decapeptide at various concentrations and then counted for viability relative to the control (untreated cells) using trypan blue. Cytotoxicity was measured according to the following formula:
[1−(# of cells in control−# of live cells in test sample)/# of cells in control]×100 percent.

SIRT6 = SIRT6 transcription, semi-quantitative RT-PCR in human epidermal progenitors; type: cell-based; details: 72 h
In short: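 Following a 72 hour treatment, cells were trypsinized and RNA isolated with an RNeasy kit. cDNA was made from 2 μg RNA using oligo dT and TaqMan reagents, then SIRT6 and 18S were amplified for 34 cycles. Products ran on 1.5 percent agarose gels with ethidium bromide; densitometry gave SIRT6/18S intensity ratios compared against vehicle-treated controls.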

SIRT7 = SIRT7 transcription, semi-quantitative RT-PCR in human epidermal progenitors; type: cell-based; details: 72 h
In short: as §1

SIRT5 = SIRT5 transcription, semi-quantitative RT-PCR in human epidermal progenitors; type: cell-based; details: 72 h
In short: as §1

SIRT1 = SIRT1 transcription, semi-quantitative RT-PCR in human epidermal progenitors; type: cell-based; details: 72 h
In short: as §1

## Ac-YRSRKYSSWY-NH2 [P4C, Acetyl-YRSRKYSSWY-amide]
[1]; 3 μM
  viability at 72 h, 3 µM: 100%
[1]; 10 μM
  viability at 72 h, 10 µM: 99 ± 1%
[1]; 30 μM
  viability at 72 h, 30 µM: 99 ± 1%
[1]; 50 μM
  viability at 72 h, 50 µM: 99 ± 1%
[1]; 100 μM
  viability at 72 h, 100 µM: 98 ± 2%
[1]; 300 μM
  viability at 72 h, 300 µM: 97 ± 2%
[1]; 500 μM
  viability at 72 h, 500 µM: 96 ± 2%
[1]; 1000 μM
  viability at 72 h, 1000 µM: 96 ± 2%
SIRT4; 10 μM
  SIRT4 transcription increase relative to control: 3 ± 1%
SIRT4; 30 μM
  SIRT4 transcription increase relative to control: 3 ± 1%
SIRT4; 50 μM
  SIRT4 transcription increase relative to control: 11 ± 6%
SIRT4; 100 μM
  SIRT4 transcription increase relative to control: 32 ± 9%
SIRT4; 300 μM
  SIRT4 transcription increase relative to control: 67 ± 9%
In vitro
  viability at 72 h, 3 µM: 99 ± 1%
  viability at 72 h, 10 µM: 99 ± 1%
  viability at 72 h, 30 µM: 98 ± 1%
  viability at 72 h, 50 µM: 98 ± 1%
  viability at 72 h, 100 µM: 97 ± 1%
  viability at 72 h, 300 µM: 97 ± 1%
  viability at 72 h, 500 µM: 96 ± 2%
  viability at 72 h, 1000 µM: 96 ± 2%
SIRT2; 10 μM
  SIRT2 transcription increase relative to control: 5.00%
SIRT2; 30 μM
  SIRT2 transcription increase relative to control: 2 ± 1%
SIRT2; 50 μM
  SIRT2 transcription increase relative to control: 1.00%
SIRT2; 100 μM
  SIRT2 transcription increase relative to control: 42 ± 1%
SIRT2; 300 μM
  SIRT2 transcription increase relative to control: 31 ± 9%
[2]; 3 μM
  viability at 168 h, 3 µM: 100%
[2]; 10 μM
  viability at 168 h, 10 µM: 98.9 ± 1%
[2]; 30 μM
  viability at 168 h, 30 µM: 98.3 ± 1%
[2]; 50 μM
  viability at 168 h, 50 µM: 97.8 ± 1%
[2]; 100 μM
  viability at 168 h, 100 µM: 97.4 ± 2%
[2]; 300 μM
  viability at 168 h, 300 µM: 96.5 ± 2%
[2]; 500 μM
  viability at 168 h, 500 µM: 95.7 ± 2%
[2]; 1000 μM
  viability at 168 h, 1000 µM: 94.9 ± 3%
SIRT6; 10 μM
  SIRT6 transcription increase relative to control: 12 ± 3%
SIRT6; 30 μM
  SIRT6 transcription increase relative to control: 9 ± 4%
SIRT6; 50 μM
  SIRT6 transcription increase relative to control: 31 ± 5%
SIRT6; 100 μM
  SIRT6 transcription increase relative to control: 124 ± 7%
SIRT6; 300 μM
  SIRT6 transcription increase relative to control: 87 ± 3%
SIRT7; 10 μM
  SIRT7 transcription increase relative to control: 14 ± 5%
SIRT7; 30 μM
  SIRT7 transcription increase relative to control: 7 ± 2%
SIRT7; 50 μM
  SIRT7 transcription increase relative to control: 46 ± 5%
SIRT7; 100 μM
  SIRT7 transcription increase relative to control: 80 ± 11%
SIRT7; 300 μM
  SIRT7 transcription increase relative to control: 130 ± 9%
SIRT5; 10 μM
  SIRT5 transcription increase relative to control: 4 ± 1%
SIRT5; 30 μM
  SIRT5 transcription increase relative to control: 2 ± 1%
SIRT5; 50 μM
  SIRT5 transcription increase relative to control: 3 ± 1%
SIRT5; 100 μM
  SIRT5 transcription increase relative to control: 35 ± 2%
SIRT5; 300 μM
  SIRT5 transcription increase relative to control: 28 ± 9%
SIRT1; 10 μM
  SIRT1 transcription increase relative to control: 7 ± 3%
SIRT1; 30 μM
  SIRT1 transcription increase relative to control: 5.00%
SIRT1; 50 μM
  SIRT1 transcription increase relative to control: 1.00%
SIRT1; 100 μM
  SIRT1 transcription increase relative to control: 137 ± 8%
SIRT1; 300 μM
  SIRT1 transcription increase relative to control: 190 ± 9%
